Experimental data published in US9115061B2, “Naphthalene-based inhibitors of anti-apoptotic proteins” (BURNHAM INSTITUTE FOR MEDICAL RESEARCH, priority 2007, dated 2015).

Assays:
Mcl-1 = Mcl-1 (Homo sapiens (Human), UniProt Q07820); conditions: cited from earlier work
H1299 = conditions: cited from earlier work
GST-BCL-2 = GST-BCL-2 (Homo sapiens (Human), UniProt P10415); assay: Fluorescence polarization assay (FITC-Bim BH3 peptide); assay type: binding; conditions: for EC50: read-out: EC50 FPA BCL-2
Sequence of GST-BCL-2 (P10415 whole entry): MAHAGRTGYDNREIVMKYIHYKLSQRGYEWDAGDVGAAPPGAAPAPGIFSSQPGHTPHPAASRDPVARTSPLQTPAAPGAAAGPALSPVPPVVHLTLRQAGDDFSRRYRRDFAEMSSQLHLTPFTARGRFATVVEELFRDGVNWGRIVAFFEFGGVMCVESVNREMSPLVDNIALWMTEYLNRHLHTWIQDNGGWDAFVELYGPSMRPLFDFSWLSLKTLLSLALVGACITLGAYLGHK
Procedure: (§1) After 30 min incubation at room temperature, the polarization values in millipolarization units were measured at excitation/emission wavelengths of 480/535 nm with a multilabel plate reader (PerkinElmer). IC50 was determined by fitting the experimental data to a sigmoidal dose-response nonlinear regression model (SigmaPlot 10.0.1, Systat Software, Inc., San Jose, Calif., USA). Data reported are mean of three independent experiments ±standard error (SE). Performance of BCL-2 and Mcl-1 FPA are similar. […] Fluorescence polarization was measured after 10 min.

H460 cell line = assay: Cell viability, ATP-LITE assay; assay type: cell-based, human; conditions: for EC50: 72 hours, ATP-LITE
Procedure: (§2) The activity of the compounds against human cancer cell lines (PC3ML, H460, H1299, RS11846) were assessed by using the ATP-LITE assay (PerkinElmer). All cells were seeded in either F12 or RPMI1640 medium with 5 mM L-glutamine supplemented with 5% fetal bovine serum (Mediatech Inc.), penicillin and streptomycin (Omega). For maintenance, cells were cultured in 5% FBS. Cells plated into 96 well plates at varying initial densities depending on doubling time. H460 and H1299 plated at 2000 cells/well, A549 and PC3 at 3000 cells/well, and RS118456S at 10,000 cells/well. Compounds were diluted to final concentrations with 0.1% DMSO. Prior to dispensing compounds onto cells, fresh 5% media was placed into wells. Administration of compounds occurred 24 hours after seeding into the fresh media. Cell viability was evaluated using ATP-LITE reagent (PerkinElmer) after 72 hours of treatment. Data were normalized to the DMSO control-treated cells using Prism version 5.01 (Graphpad Software).

PC3ML cells = assay: Cell viability, ATP-LITE assay; assay type: cell-based, human
Procedure: as §2

RS11846 cell line [1] = assay: Cell viability, ATP-LITE assay; assay type: cell-based, human; conditions: 72 hours
Procedure: as §2

RS11846 cell line [2] = assay: Apoptosis, Annexin V and propidium iodide assay; assay type: cell-based, human; conditions: 1-2 days; read-out: RS11846 EC50 (Annexin V- and propidium iodide assay)
Procedure: The apoptotic activity of the compounds against RS11846 cells was assessed by staining with Annexin V- and propidium iodide (PI). Lymphoma cell line, RS11846, was cultured in RPMI 1640 medium (Mediatech Inc., Herndon, Va. 20171) containing 10% fetal bovine serum (Mediatech Inc., Herndon, Va. 20171) and Penicillin/Streptomycin (Mediatech Inc., Herndon, Va. 20171). […] The percentage of viable cells was determined by FITC-Annexin V- and propidium iodide (PI)-labeling, using an Apoptosis Detection kit (BioVision Inc.), and analyzing stained cells by flow cytometry (FACSort; Bectin-Dickinson, Inc.; Mountain View, Calif.). Cells that were annexin-V-negative and PI-negative were considered viable.

Plasma stability = assay type: in vitro ADME, rat; conditions: for Plasma Stability (T = 1 hr): rat plasma, 37.5° C.
Procedure: A 20 μL aliquot of a 10 mM solution in DMSO of the test compound was added to […] of heparinized rat plasma (Lampire, P1-150N) to obtain a 100 μM final solution. The mixture was incubated for 1 h at 37.5° C. Aliquots of 100 μL were taken (0, 30 min, 1 h) and diluted with 200 μL of MeOH containing internal standard.

Balb/c mice = assay: Oral toxicity study in normal Balb/c mice; assay type: in vivo, mouse
Procedure: Compounds or vehicle control were dosed 15 times over 3 weeks, giving compounds daily for 5 consecutive days (Monday-Friday), resting on weekends.
Both compounds were provided by NCI-DTP (RAID-program). Compounds were dissolved in 100% sesame oil just before oral administration. Vehicle-control consisted of corresponding concentration of ascorbic acid suspended in 100% sesame oil.
(§3) Spleens were removed and weighed.
Whole blood (250 μl) was collected in EDTA-coated glass tubes (purple top; MICROTAINER Brand Tube with EDTA, Catalogue #365973, Becton, Dickinson and Company, New Jersey 07417-1885) via either cardiac puncture or severing the brachial artery of anesthetized mice. After thorough mixing, specimens were analyzed using a VetScan HM2 (Abaxis Inc., Union City, Calif. 94587) hematology analyzer, measuring white blood cell count (WBC), red blood cell count (RBC), platelet (PLT) count, leukocyte differential (including % lymphocyte, % monocyte and % granulocyte), hematocrit (Ht), and hemoglobin (Hb).
(Eppendorf Centrifuge 5415C) for 2 minutes to separate serum from cells and fibrin clot. The resulting serum specimens were analyzed using an automated blood chemistry analyzer (“COBAS MIRA Classic”; Roche, Indianapolis, Ind. 46250-0414) to measure alanine aminotransferase (ALT) and aspartate aminotransferase AST), blood urea nitrogen (BUN), and […].
Stomach and intestines were examined also imaged by ultrasound for evidence of dilation, an indication of GI toxicity. Briefly, mice were anesthetized using a mixture of isofluorane (5%) and oxygen gas (95%), restrained on a heated table using Aquagel Lubrication Gel (Parker Laboratories, Inc., Fairfield, N.J. 07004), and abdominal hair was removed with a chemical depilation agent (Nair™ Hair Removal, Church & Dwight Co., Inc., Princeton, N.J. 08543). Aquasonic 100 Ultrasound Transmission Gel (Parker Laboratories, Inc., Fairfield, N.J. 07004) was applied to the abdomen prior to imaging using a high-frequency probe to assess gas and intestinal distention.
Immediately after ultrasound imaging, electrocardiogram (ECG) analysis of anesthetized mice was performed using a MP150 Biopack System.

380 cell line = assay: Apoptosis induction in NHL B-cell lines, Annexin V-FITC/PI; assay type: cell-based; conditions: 48 hours, relative to DOHH2 and RS11846
Procedure: (§4) After 48 hours of incubation, % viability was determined by FACSort after staining cells by the use of an Annexin V-FITC/PI Apoptosis Detection kit (BioVision Inc.). Viable cells were defined by Annexin V-negative, PI-negative cells.

DOHH2 cell line = assay: as above; assay type: cell-based; conditions: 48 hours; read-out: IC50, % viability DOHH2
Procedure: as §4

RS11846 cell line [3] = assay: as above; assay type: cell-based; conditions: 48 hours; read-out: IC50, % viability RS11846
Procedure: as §4

[4] = test system: murine B-cells from BCL-2 transgenic mice; assay: Viability of cultured splenocytes, Annexin V-FITC/PI; assay type: cell-based; conditions: 18 hours; read-out: IC50, induction of apoptosis in cultured B-cells of BCL-2 transgenic mouse
Procedure: (§5) Spleens were excised from sacrificed mice and cell suspensions treated with a mouse erythrocyte lysing kit (R & D Systems). Total splenocyte count was determined by typan blue dye exclusion assays using hemocytometers. The percentage of B-lymphocytes was determined by fluorescence activated cell sorter (FACS) analysis SACS-CANTO, Bectin-Dickinson Inc., Mountain View, Calif.) following staining cells with Phyco-Erytrin (PE)-conjugated anti-CD19 or -B220 antibodies (Becton Dickinson, San Jose, Calif. 95131).
After 18 hours of incubation, % viability of splenocytes was determined by FACSort after staining cells by the use of an Annexin V-FITC/PI Apoptosis Detection kit (BioVision Inc.). Viable cells were defined by Annexin V-negative, PI-negative cells.

BCL-2 transgenic mice = assay: Oral efficacy study in BCL-2 transgenic mice (splenomegaly); assay type: in vivo, mouse
Procedure: The transgene was propagated on the Balb/c background.
as §3, §5
Representative data are shown by FIGS. 11A and 11B.

[5] = Liver microsomal stability; conditions: rat liver microsomes, 4 μM, 60 min
Procedure: Pooled rat liver microsomes (BD Biosciences, #452701) were preincubated with test compounds at 37.5° C. for 5 min in the absence of NADPH. The reaction was initiated by addition of NADPH and then incubated under the same conditions. […] One aliquot (100 μL) of the incubation mixture was withdrawn at 0, 15, 30, and 60 min and combined immediately with 200 μL of ACN/MeOH containing an internal standard. After mixing, the sample was centrifuged at approximately 13,000 rpm for 12 min. The supernatant was transferred into an autosampler vial and the amount of test compound was quantified using the Shimadzu LCMS 2010EV mass spectrometer. The change of the AUC (area under the curve) of the parent compound as function of time was used as a measure of microsomal stability.

[6] = PAMPA (parallel artificial membrane permeation assay); conditions: for Cell Permeability: PAMPA, pH 7.2, 8 h
Procedure: PAMPA is parallel artificial membrane permeation assay. A 96-well microtiter plate (Millipore, # MSSACCEPTOR) was completely filled with aqueous buffer solution (pH 7.2) and covered with a microtiter filterplate (Millipore, # MAPBMN310). The hydrophobic filter material was impregnated with a 10% solution of hexadecane in hexane and the organic solvent was allowed to completely evaporate. Permeation studies were started by the transfer of 200 μL of a 100 μM test compound solution on top of the filterplate. In general phosphate buffer at pH 7.2 buffer was used. The maximum DMSO content of the stock solutions was <5%. In parallel, an equilibrium solution lacking a membrane was prepared using the exact concentrations and specifications but lacking the membrane. The concentrations of the acceptor and equilibrium solutions were determined using the Shimadzu LCMS-2010EV and AUC methods. The permeation of a compound through the membrane layer is described by the percentage permeation (% flux). The flux values were calculated considering the concentration of the acceptor compartment after 8 h and that of a reference well with the same concentration containing no membrane barrier.

BCL-XL [7] = target: T1, BCL-XL (Homo sapiens (Human), UniProt Q07817); assay: 1D 1H-NMR binding assay; as to 1D 1H-NMR Binding Assay (BCL-XL): key: +++: Very Active; ++: Active; +: Mild; −: Weak
T1 sequence (Q07817 whole entry): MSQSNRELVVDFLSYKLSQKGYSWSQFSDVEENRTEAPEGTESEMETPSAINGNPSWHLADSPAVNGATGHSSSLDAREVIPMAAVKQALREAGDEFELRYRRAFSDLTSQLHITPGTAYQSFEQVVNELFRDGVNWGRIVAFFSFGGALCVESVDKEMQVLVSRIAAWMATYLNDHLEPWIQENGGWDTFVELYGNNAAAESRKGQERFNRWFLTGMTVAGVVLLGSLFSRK
Procedure: By observing the aliphatic region of the spectra, binding could be readily detected due to chemical shift changes in active site methyl groups of Ile, Leu, Thr, Val or Ala (region between −0.8 and 0.3 ppm). All experiments were performed with a 600 MHz spectrometer Bruker Avance 600 equipped with four rf channels and z-axis pulse-field gradients.

GST-BCL-XL ΔTM protein = GST-BCL-XL ΔTM protein (Homo sapiens (Human), UniProt Q07817); assay: Competitive fluorescence polarization assay (FITC-Bak BH3 peptide); assay type: binding
Sequence of GST-BCL-XL ΔTM protein (Q07817 1-209): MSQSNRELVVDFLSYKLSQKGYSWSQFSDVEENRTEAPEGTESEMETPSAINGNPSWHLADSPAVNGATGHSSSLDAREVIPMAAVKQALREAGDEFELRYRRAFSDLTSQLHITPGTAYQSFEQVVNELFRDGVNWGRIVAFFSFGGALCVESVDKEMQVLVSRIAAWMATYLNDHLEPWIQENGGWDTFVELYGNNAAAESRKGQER
Procedure: For competitive binding assays, 100 nM GST-BCL-XL ΔTM protein was preincubated with the tested compound at varying concentrations in 47.5 μL PBS (pH=7.4) in 96-well black plates at room temperature for 10 min, then 2.5 μL of 100 nM FITC-labeled Bak BH3 peptide was added to produce a final volume of 50 μL. The wild-type and mutant Bak BH3 peptides were included in each assay plate as positive and negative controls, respectively.
IC50 was determined by fitting the experimental data to a sigmoidal dose-response nonlinear regression model (SigmaPlot 10.0.1, Systat Software, Inc., San Jose, Calif., USA). Data reported are mean of three independent experiments ±standard error (SE). […] Fluorescence polarization was measured after 10 min.

GST-Mcl-1 = GST-Mcl-1 (Homo sapiens (Human), UniProt Q07820); assay: Fluorescence polarization assay (FITC-Bim BH3 peptide); assay type: binding
Sequence of GST-Mcl-1 (Q07820 whole entry): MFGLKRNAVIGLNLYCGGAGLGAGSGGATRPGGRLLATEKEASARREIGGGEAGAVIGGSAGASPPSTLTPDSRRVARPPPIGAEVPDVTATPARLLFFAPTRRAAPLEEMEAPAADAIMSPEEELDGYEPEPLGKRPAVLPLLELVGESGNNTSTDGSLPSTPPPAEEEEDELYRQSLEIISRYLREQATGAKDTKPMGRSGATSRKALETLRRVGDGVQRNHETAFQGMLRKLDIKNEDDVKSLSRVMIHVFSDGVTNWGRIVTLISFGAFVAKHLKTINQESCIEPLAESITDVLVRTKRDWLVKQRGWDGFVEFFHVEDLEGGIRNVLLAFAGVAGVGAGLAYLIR
Procedure: as §1, with “(SE).” for “(SE). Performance of BCL-2 and Mcl-1 FPA are similar.”

BCL-XL [8] = target: T1, BCL-XL; assay: Isothermal titration calorimetry (ITC); assay type: binding
Procedure: Titrations were performed using a VP-ITC or ITC200 calorimeter from Microcal (Northampton, Mass.). BCL-XL was used at concentrations between 25 and 100 μM in 20 mM sodium phosphate buffer (pH 7.4) and 5-10% DMSO. Titrants were used at concentrations 10-15× of the protein in the same buffer. Titrations were carried out at 25° C. Data were analyzed using Microcal Origin software provided by the ITC manufacturer (Microcal, Northampton, Mass.).

B6BCL2 mouse = assay: Spleen weight in B6BCL2 transgenic mice after intraperitoneal injection; assay type: in vivo
Procedure: Transgenic mice expressing BCL-2 have been described as the B6 line. The BCL-2 transgene represents a minigene version of a t(14;18) translocation in which the human BCL-2 gene is fused with the immunoglobulin heavy-chain (IgH) locus and associated IgH enhancer. The transgene was propagated on the Balb/c background.
After 24 hours, B6BCL2 mice were sacrificed by intraperitoneal injection of lethal dose of Avertin. Spleen was removed and weighed. […] Spleen tissue was fixed in z-FIX for 3 days and rinsed in PBS, and saved for histological analysis of spleen (H&E staining and TUNEL assay).

Sequence of Mcl-1 (Q07820 whole entry): as above

CN(C)CC[C@H](CSc1ccccc1)Nc1ccc(S(=O)(=O)NC(=O)c2ccc(N3CCN(Cc4ccccc4-c4ccc(Cl)cc4)CC3)cc2)cc1[N+](=O)[O-] [ABT-737]
effectiveness against Mcl-1 (Mcl-1): not effective | killing of Mcl-1 overexpressing cell lines such as H1299 (H1299): not effective in killing

Cc1cc2c(C(C)C)c(O)c(O)cc2c(O)c1-c1c(C)cc2c(C(C)C)c(O)c(O)cc2c1O [Apogossypol, apogossypol]
EC50 (GST-BCL-2): 2800 nM | EC50 (H460 cell line): 2800 nM | EC50 (H460 cell line; listed as apogossypol): 3400 nM | EC50 (PC3ML cells; 72 hours, ATP-LITE): 10300 nM | EC50 (RS11846 cell line [1]): 5000 nM | EC50 (RS11846 cell line [2]): 8600 nM | Plasma Stability (T = 1 hr) (Plasma stability): 53% | mice found dead (Balb/c mice; […] oral, day 18 of treatment): One of 6 | general condition of mice (Balb/c mice; […] oral, three weeks): remained active and apparently healthy | toxicity, preliminary maximum tolerated dose (MTD) studies (Balb/c mice; orally or by intraperitoneal injection): less toxic than gossypol | sensitivity of 380 cell line (380 cell line): slightly more resistant | IC50 (DOHH2 cell line): ~3000 nM | IC50 (RS11846 cell line [3]): ~3000 nM | IC50 [4]: 1000 to 2000 nM | tolerability, low dose (BCL-2 transgenic mice; 0.06 mmol/kg oral, QDX5 for 3 weeks): well tolerated | shrinkage of spleen, low dose (BCL-2 transgenic mice; 0.06 mmol/kg oral, QDX5 for 3 weeks, wet weight and B-cell count): induced shrinkage of spleen to a significant extent | spleen size, high dose (BCL-2 transgenic mice; […] daily oral): reduced roughly by half | tolerability, high dose (BCL-2 transgenic mice; […] oral, QDX5 for 3 weeks): well tolerated | Microsomal Stability (T = 1 hr) [5]: 60% | Cell Permeability [6]: Low

Cc1cc2c(C(=O)Cc3ccccc3)c(O)c(O)cc2c(O)c1-c1c(C)cc2c(C(=O)Cc3ccccc3)c(O)c(O)cc2c1O [Compound I, 1,1′-(1,1′,6,6′,7,7′-hexahydroxy-3,3′-dimethyl-2,2′-binaphthyl-5,5′-diyl)bis(2-phenylethanone)]
chemical shift changes in active site methyl groups of BCL-XL (BCL-XL [7]; 1D 1H-NMR spectra): significant chemical shift changes | 1D 1H-NMR Binding Assay (BCL-XL) (BCL-XL [7]; 4-point-rating scale, compounds 200 μM, BCL-XL 25 μM): +++ | times more effective than apogossypol, FP displacement BCL-XL (GST-BCL-XL ΔTM protein): ~20 times | EC50 (GST-BCL-XL ΔTM protein; Table 3, read-out: EC50 FPA BCL-XL): 190 nM | fold more potent than apogossypol, BCL-2 FPA (GST-BCL-2): approximately 8 fold | EC50 (GST-BCL-2): 360 nM | fold more potent than apogossypol, Mcl-1 FPA (GST-Mcl-1): ~5 fold | EC50 (GST-Mcl-1; read-out: EC50 FPA Mcl-1): 520 nM | times more potent than apogossypol, Kd ITC BCL-XL (BCL-XL [8]): 10 times | Kd (BCL-XL [8]; 25° C., pH 7.4): 170 nM | times more potent than apogossypol, H460 EC50 (H460 cell line): 4-5 times | fold more potent than apogossypol, PC3ML EC50 (PC3ML cells): 2-5 fold | EC50 (RS11846 cell line [2]): 4900 nM | degraded after 1 hour incubation in rat plasma (Plasma stability; 1 hour): 15% | Plasma Stability (T = 1 hr) (Plasma stability): 85% | macroscopic toxicity (B6BCL2 mouse; mouse, in vivo): no macroscopic toxicity | reduction in spleen weight, single mouse (B6BCL2 mouse; single BCL-2 transgenic mouse, 60 μmol/kg, intraperitoneal, 24 hours): 40% | reduction of spleen weight, groups of six mice (B6BCL2 mouse; six mice, P<0.0001 vs control): ~40% | Microsomal Stability (T = 1 hr) [5]: 64% | cell membrane permeability compared to apogossypol [6]: improved | Cell Permeability [6]: Medium
